The subject of data set [1] is MEF. The data set is described as follows: Cytotoxicity WST-1 assay on MEF. It counts as cell-based, mouse. Conditions: Mus musculus, 96 h, read-out: EC50 in µM ± SD. An excerpt: (§1) Four cell lines of various origins were used to evaluate the cytotoxicity of our target compounds 5–7. The selected cell lines were (i) NIH-3T3, a cell line originally established from the primary mouse embryonic fibroblast cells, (ii) MEF, primary mouse embryonic fibroblasts (used at their early passages) prepared as previously described, (iii) WI-38, a human diploid cell line derived from normal embryonic lung tissue, and (iv) HEK293T, a transformed variant of the human embryonic kidney cell line HEK293. After 96 h, cytotoxicity was evaluated using the WST-1 assay. […] Seventeen compounds were evaluated on the cell lines and then compared to TBB used as a standard. […]. All cells were grown in DMEM medium supplemented with 10% fetal calf serum, glutamine (2 mM), penicillin (100 U/mL), and streptomycin (50 μg/mL) at 37 °C under a humidified 5% CO2 atmosphere (Gibco). The assays were performed in sterile 96-wells microtiter plates (Falcon). Cells were plated at 500 (NIH-3T3), 750 (WI-38) or 1000 (MEF; HEK293T) cells/100 µL/well. Drug solutions (10 μL per well) of appropriate concentration (prepared by dilution in the culture medium from 2 mM stock acetonitrile solution) were added 24 h after cell seeding. For ellagic acid and emodin, DMSO was used to prepare the stock solution. After 96 h, the cytotoxicity is evaluated using the Cell Proliferation Reagent WST-1 following the procedure described by the manufacturer (Roche Applied Science). The drugs were assayed at 10, 5, 1, 0.2 and 0.04 µM in triplicate. The vehicle was used as control. The experiments were repeated three times.
A general note: Tetrazolium dyes change colour on reduction, which living cells bring about.

Data set [2] concerns the target T1, human CK2 holoenzyme (Homo sapiens, UniProt P68400). The data set is described as follows: biochemical. The note with it: average percent inhibition at 10 µM.
The subject of data set [3] is WI-38. Description: Cytotoxicity WST-1 assay on WI-38. It is filed as cell-based, human. Conditions: Homo sapiens, WI-38, 96 h, read-out: EC50 in µM ± SD.
Source text: as §1

Data set [4] concerns HEK293T. Description: Cytotoxicity WST-1 assay on HEK293T. It counts as cell-based, human. Conditions: Homo sapiens, HEK-293T, 96 h, read-out: EC50 in µM ± SD.
Source text: as §1

The nature of data set [5]: Cytotoxicity WST-1 assay, statements over the four cell lines. It is filed as cell-based. Conditions: mouse (NIH-3T3, MEF) and human (WI-38, HEK293T), WST-1, cell line not specified, read-out: EC50 (cytotoxic activity, over the cell lines).
Source text: as §1

For data set [6], the system named is NIH-3T3. Description: Cytotoxicity WST-1 assay on NIH-3T3. Conditions: Mus musculus, NIH3T3, 96 h, read-out: EC50 in µM ± SD. It counts as cell-based, mouse.
Source text: as §1

The target in data set [7] is T1, human CK2 holoenzyme. The note with it: read-out: IC50 ± SD, assay buffer with 100 µM ATP.
Data set [8] relates to tumor cell lines (5637, SISO, KYSE-70, MCF-7, LCLC, A427). Conditions: cited from earlier work.

Some results are limits rather than exact numbers.

T1 sequence (P68400 whole entry): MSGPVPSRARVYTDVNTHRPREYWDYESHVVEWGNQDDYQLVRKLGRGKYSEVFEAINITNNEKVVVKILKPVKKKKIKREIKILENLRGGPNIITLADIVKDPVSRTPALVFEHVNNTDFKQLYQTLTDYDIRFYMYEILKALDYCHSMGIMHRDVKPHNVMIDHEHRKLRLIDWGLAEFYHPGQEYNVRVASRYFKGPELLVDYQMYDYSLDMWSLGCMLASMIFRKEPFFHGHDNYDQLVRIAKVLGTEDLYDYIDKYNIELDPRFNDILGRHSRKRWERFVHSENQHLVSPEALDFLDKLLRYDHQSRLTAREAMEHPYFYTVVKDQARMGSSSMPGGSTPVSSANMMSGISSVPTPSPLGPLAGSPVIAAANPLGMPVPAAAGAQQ
T1 sequence (P67870 whole entry partner): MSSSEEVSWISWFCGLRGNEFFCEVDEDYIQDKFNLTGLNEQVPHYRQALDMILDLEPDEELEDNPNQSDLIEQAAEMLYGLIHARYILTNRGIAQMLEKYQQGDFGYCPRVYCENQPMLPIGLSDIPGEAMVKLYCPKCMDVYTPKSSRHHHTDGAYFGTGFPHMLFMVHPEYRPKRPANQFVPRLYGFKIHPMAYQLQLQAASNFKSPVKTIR

Consider `CC(C)n1c2c(=O)c(-c3ccc(F)cc3)cc(=O)c2c2c(=O)c3ccccc3c21` [Compound 7d, 7-(4-Fluorophenyl)-5-isopropyl-5H-indeno[1,2-b]indole-6,9,10-trione], for which the melting point (usually the temperature of the solid-liquid transition) amounted to 258.1 °C. Moreover, the EC50 (as a rule, the concentration needed to bring the measured effect to its halfway point) in data set [1] was 8.5 ± 0.4 µM. Besides, in data set [2], testing at 10 µM gave an inhibition of 42%. In addition, the EC50 in data set [3] was more than 10 µM. For the same compound, in [4], the EC50 was 4.9 ± 2.4 µM. The EC50 at 96 h in [5] lay in the range of 0.4 to 8.8 µM. In addition, the concentration for a half-maximal effect (EC50) in data set [6] was more than 10 µM.
For `Cc1cc(=O)c2c(c1=O)c1c(=O)c3ccccc3c1n2C(C)C` [Compound 7f, 5-Isopropyl-8-methyl-5H-indeno[1,2-b]indole-6,9,10-trione], the EC50 in data set [1] is more than 10 µM; in [3], more than 10 µM; in [4], 4.4 ± 2.2 µM; in data set [6], more than 10 µM. Moreover, the IC50 (usually the point on the concentration scale where inhibition reaches its midpoint) in data set [7] turned out to be 4.9 ± 0.54 µM. For the same compound, the inhibition (as a rule, how much of the control response was suppressed) at 10 µM in data set [2] worked out at 72%. Also, in data set [5], the concentration for a half-maximal effect (EC50) at 96 h was 0.4 to 8.8 µM.
`CC(C)n1c2c(=O)c(-c3ccccc3)cc(=O)c2c2c(=O)c3ccccc3c21` [Compound 7c, 5-Isopropyl-7-phenyl-5H-indeno[1,2-b]indole-6,9,10-trione] had a melting point of 230.4 °C. Further, in data set [1], the EC50 is more than 10 µM. Moreover, the inhibition at 10 µM in [2] came to 41%. For the same compound, the 50% effective concentration (EC50) in data set [3] was more than 10 µM. Moreover, the half-maximal effective concentration (EC50) in data set [4] worked out at 1.6 ± 0.2 µM. The EC50 at 96 h in data set [5] is 0.4 to 8.8 µM. In addition, the EC50 in [6] was more than 10 µM.
As to `CC(C)n1c2c(=O)ccc(=O)c2c2c(=O)c3ccccc3c21` [Compound 7h, 5-isopropyl-5H-indeno[1,2-b]indole-6,9,10-trione], the “growth of tumor cell lines” value in data set [8] is “inhibited the growth”.
As for `O=c1oc2c(O)c(O)cc3c(=O)oc4c(O)c(O)cc1c4c23` [ellagic acid, reference compound], the EC50 in [1], in [3], in [4] and in data set [6] was more than 10 µM in each case. In addition, the IC50 in data set [7] was found to be 0.04 ± 0.007 µM. The inhibition at 10 µM in data set [2] is 95%.
Compound `CC(C)c1cc(=O)c2c3c(=O)c4ccccc4c3n(C(C)C)c2c1=O` [Compound 7b, 5,7-Diisopropyl-5H-indeno[1,2-b]indole-6,9,10-trione] gave a melting point of 230.4 °C. Besides, the EC50 in data set [1] was more than 10 µM. In addition, the concentration for half-maximal inhibition (IC50) in data set [7] was 4.76 ± 0.29 µM. Besides, at 10 µM the inhibition in data set [2] was 60%. In [3], the EC50 was more than 10 µM. Moreover, the EC50 in [4] is more than 10 µM. The EC50 in data set [6] was more than 10 µM.
